Laboratory results taken from article PMC9938899, “Rice-memolin, a novel peptide derived from rice bran, improves cognitive function after oral administration in mice” (Scientific Reports, 2023).
Where no end group is shown, it is not given here.

What was measured:
[1] = system: mice fed HFD; test: novel object recognition test (ORT) in mice fed a high-fat diet; format: in vivo; conditions: MLA 0.3 mg/kg i.p. with rice-memolin 1 mg/kg p.o. once a day for 3 days, n = 3–5 (Fig. 4)
Procedure: Male ddY mice (11 weeks old) were obtained from SLC (Shizuoka, Japan). They were kept in a temperature-controlled room (23 °C) on a daily 12-h light: 12-h dark cycle. After one week-acclimatization, these mice were fed MF pellets (Oriental Yeast, Tokyo, Japan) as control diet, HFD60 pellets (Oriental Yeast Co., Ltd, Japan) as high-fat diet, or HFD 60 pellets containing 0.04% rice bran protein digest (specially ordered from Oriental Yeast Co., Ltd, Japan) with free access to water for 7 days. The component of HFD60 was previously reported. Animal experiments were conducted in accordance with the Fundamental Guidelines for Proper Conduct of Animal Experiment and Related Activities in Academic Research Institutions under the jurisdiction of the Ministry of Education, Culture, Sports, Science and Technology of Japan, and were approved by the Committee on Animal Experimentation at Kyoto University, Japan. All experiments were approved by the Kyoto University Ethics Committee for Animal Research Use, permission code was R3-13. […]
Cognitive function was evaluated on Day 6 and 7 using two behavioral pharmacological tests: novel object recognition test (ORT) and object location test (OLT). […] Using the ORT, effect of donepezil, a drug currently used for the relief of cognitive deficits associated with mild to moderate Alzheimer’s diseases, was evaluated. […]

[2] = system: pepsin and pancreatin; test: pepsin and pancreatin digestion of VYTPG with LCMS analysis; format: in vitro ADME; conditions: simulated gastrointestinal digestion; each enzyme treatment time 1 h; LCMS analysis (Supplemental Fig. S1)
Procedure: Pepsin and pancreatin digests of VYTPG and LCMS analysis were performed in a similar manner to previous studies (Shobako et al.) with slight modifications to simulate peptide bioavailability. Each enzyme treatment time was 1 h.

CCN1C[C@]2(COC(=O)c3ccccc3N3C(=O)C[C@H](C)C3=O)CC[C@H](OC)[C@@]34[C@@H]5C[C@H]6[C@H](OC)[C@@H]5[C@](O)(C[C@@H]6OC)[C@@](O)([C@@H](OC)[C@H]23)[C@@H]14 [MLA, methyllycaconitine]
effect on the rice-memolin-induced improvement in the novel ORT [1]: inhibited the effects of rice-memolin

VYTPG [VYTPG, Val-Tyr-Thr-Pro-Gly]
stability to digestion by pepsin and pancreatin [2]: existed even after digestion by pepsin and pancreatin
